Molecular target: T1, Edg-1/S1P1 receptor (Homo sapiens, UniProt P21453)
T1 construct: expressed in transfected cells; host or cells: human osteogenic sarcoma U2OS cells: Edg-1 Transfluor U2OS WT Clone #37 (assay I), Edg-1 Transfluor U2OS Clone #3 (assay II)
Test: In vitro cell based receptor activation assay - Transfluor assay (assay I or II; beta-arrestin GFP relocalization after S1P stimulation)
Conditions: at 3.30 μM (run with this as top concentration)
Procedure, shortened: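 U2OS cells overexpressing S1P1 with a beta-arrestin-GFP construct were pre-incubated with compound for 15 min at room temperature, then stimulated with S1P for 45 min at 37 °C. In assay I, final S1P was 375 nM or 750 nM and compound was a 9-point 3-fold series from 100 μM, in 1% DMSO. Cells were fixed and Hoechst-stained, GFP relocalization was imaged, and EC50 values were fitted.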

T1 sequence (P21453 whole entry): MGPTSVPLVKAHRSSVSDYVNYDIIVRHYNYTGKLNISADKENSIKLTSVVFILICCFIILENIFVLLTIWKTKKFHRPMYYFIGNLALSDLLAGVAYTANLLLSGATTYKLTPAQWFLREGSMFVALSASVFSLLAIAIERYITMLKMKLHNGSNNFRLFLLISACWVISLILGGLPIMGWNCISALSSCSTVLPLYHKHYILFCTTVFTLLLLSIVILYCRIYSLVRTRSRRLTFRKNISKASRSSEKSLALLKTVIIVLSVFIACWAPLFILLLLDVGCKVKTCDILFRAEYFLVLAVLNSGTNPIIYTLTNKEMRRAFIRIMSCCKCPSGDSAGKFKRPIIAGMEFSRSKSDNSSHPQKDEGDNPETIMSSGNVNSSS

Row | inhibition at 3.3 µM | SMILES
1 | 71.7% | CCn1c([C@@H](C)NS(=O)(=O)C2=Cc3ccccc3CC2)nc2ccc(C(F)(F)F)cc21 [Example 119, M-{(1R)-1-[1-Ethyl-6-(trifluoromethyl)-1H-benzimidazol-2-yl]ethyl}-3,4-diyhydronaphthalene-2-sulfonamide]
2 | 74% | CCn1cc(S(=O)(=O)N[C@H](C)c2nc3ccc(C(F)(F)F)cc3n2CC)cn1 [Example 121, 1-ethyl-N-{(1R)-1-[1-Ethyl-6-(trifluoromethyl)-1H-benzimidazol-2-yl]ethyl}-1H-pyrazole-4-sulfonamide]

Same assay, conditions: at 3.50 μM (titrated from top concentration 10 μM)

Row | inhibition at 3.5 µM | SMILES | % inhibition
3 | 92.4% | CCn1c([C@@H](C)NS(=O)(=O)c2ccc([N+](=O)[O-])cc2)nc2ccc(C(F)(F)F)cc21 [Example 110, (R)-N-(1-(1-Ethyl-6-(trifluoromethyl)-1H-benzo[d]imidazol-2-yl)ethyl)-4-nitrobenzenesulfonamide] | –
4 | 72% | CCn1c([C@@H](C)NS(=O)(=O)c2ccc(C#N)cn2)nc2ccc(C(F)(F)F)cc21 [Example 114, (R)-5-Cyano-N-(1-(1-ethyl-6-(trifluoromethyl)-1H-benzo[d]imidazol-2-yl)ethyl)pyridine-2-sulfonamide] | –
5 | 85.3% | CCn1c([C@@H](C)NS(=O)(=O)c2ccc(C)cc2)nc2ccc(C(F)(F)F)cc21 [Example 115, (R)-N-(1-(1-Ethyl-6-(trifluoromethyl)-1H-benzo[d]imidazol-2-yl)ethyl)-4-methylbenzenesulfonamide] | –
6 | 90.9% | CCn1c([C@@H](C)NS(=O)(=O)c2cccc(F)c2)nc2ccc(C(F)(F)F)cc21 [Example 120, N-{(1R)-1-[1-Ethyl-6-(trifluoromethyl)-1H-benzimidazol-2-yl]ethyl}-3-fluorobenzenesulfonamide] | –
7 | 91.4% | CCn1c([C@@H](C)NS(=O)(=O)c2ccc(OC)cc2)nc2ccc(C(F)(F)F)cc21 [Example 122, N-{(1R)-1-[1-Ethyl-6-(trifluoromethyl)-1H-benzimidazol-2-yl]ethyl}-4-methoxybenzenesulfonamide] | –
8 | 96.7% | CCn1c([C@@H](C)NS(=O)(=O)c2cccc(Cl)c2)nc2ccc(C(F)(F)F)cc21 [Example 123, 3-Chloro-N-{(1R)-1-[1-ethyl-6-(trifluoromethyl)-1H-benzimidazol-2-yl]ethyl}benzenesulfonamide] | –
9 | 79.4% | CCn1c([C@@H](C)NS(=O)(=O)c2ccc(OC)c(OC)c2)nc2ccc(C(F)(F)F)cc21 [Example 124, N-{(1R)-1-[1-Ethyl-6-(trifluoromethyl)-1H-benz-imidazol-2-yl]ethyl}-3,4-di-methoxybenzenesulfonamide] | –
10 | 14.9% | CCn1c([C@@H](C)NS(=O)(=O)c2ccccn2)nc2ccc(C(F)(F)F)cc21 [Example 125, N-{(1R)-1-[1-Ethyl-6-(trifluoromethyl)-1H-benzimidazol-2-yl]ethyl}pyridine-2-sulfonamide] | –
11 | 92.8% | CCn1c([C@@H](C)NS(=O)(=O)c2cccnc2)nc2ccc(C(F)(F)F)cc21 [Example 126, (R)—N-(1-(1-ethyl-6-(trifluoromethyl)-1H-benzo[d]imidazol-2-yl)ethyl)pyridine-3-sulfonamide] | –
12 | 86.4% | CCn1c([C@@H](C)NS(=O)(=O)c2ccncc2)nc2ccc(C(F)(F)F)cc21 [Example 127, (R)-N-(1-(1-Ethyl-6-(trifluoromethyl)-1H-benzo[d]imidazol-2-yl)ethyl)pyridine-4-sulfonamide] | –
13 | 94.5% | CCn1c([C@@H](C)NS(=O)(=O)c2cnc(NN)c(Cl)c2)nc2ccc(C(F)(F)F)cc21 [Example 128, R-5-chloro-N-(1-(1-ethyl-6-(trifluoromethyl)-1H-benzo[d]imidazol-2-yl)ethyl)-6-hydrazinylpyridine-3-sulfonamide] | –
14 | 90.3% | CCn1c([C@@H](C)NS(=O)(=O)c2cncc(Cl)c2)nc2ccc(C(F)(F)F)cc21 [Example 129, R-5-chloro-N-(1-(1-ethyl-6-(trifluoromethyl)-1H-benzo[d]imidazol-2-yl)ethyl)pyridine-3-sulfonamide] | –
15 | 95% | CCn1c([C@@H](C)NS(=O)(=O)c2ccc(S(C)(=O)=O)cc2)nc2ccc(C(F)(F)F)cc21 [Example 131, (R)-N-(1-(1-Ethyl-6-(trifluoromethyl)-1H-benzo[d]imidazol-2-yl)ethyl)-4-(methylsulfonyl)-benzenesulfonamide] | –
16 | 86.4% | C#Cc1ccc(S(=O)(=O)N[C@H](C)c2nc3ccc(C(F)(F)F)cc3n2CC)cn1 [Example 133, (R)-N-(1-(1-Ethyl-6-(trifluoromethyl)-1H-benzo[d]imidazol-2-yl)ethyl)-6-ethynylpyridine-3-sulfonamide] | –
17 | 95% | CCn1c([C@@H](C)NS(=O)(=O)c2ccc(F)c(CN)c2)nc2ccc(C(F)(F)F)cc21 [Example 134, 3-(Aminomethyl)-N-[(1R)-1-[1-ethyl-6-(trifluoromethyl)-1H-benzimidazol-2-yl]ethyl]-4-fluorobenzenesulfonamide] | –

Continued, compound first:

Row | SMILES | inhibition at 3.5 µM | % inhibition
18 | CCn1c([C@@H](C)NS(=O)(=O)c2ccc(NC(N)=O)cc2)nc2ccc(C(F)(F)F)cc21 [Example 112, (R)-N-(1-(1-Ethyl-6-(trifluoromethyl)-1H-benzo[d]imidazol-2-yl)ethyl)-4-ureidobenzenesulfonamide] | – | [drawing 124] (R)-N-(1-(1-Ethyl-6- (trifluoromethyl)-1H- benzo[d]imidazol-2-yl)ethyl)- 4-ureidobenzenesulfonamide (Inactive at 3.50 μM)
19 | CCn1c([C@@H](C)NS(=O)(=O)c2ccc(NC(=O)N(C)C)cc2)nc2ccc(C(F)(F)F)cc21 [Example 113, (R)-4-(3,3-Dimethylureido)-N-(1-(1-ethyl-6-(trifluoromethyl)-1H-benzo[d]imidazol-2-yl)ethyl)benzenesulfonamide] | – | [drawing 125] (R)-4-(3,3-Dimethylureido)- N-(1-(1-ethyl-6- (trifluoromethyl)-1H- benzo[d]imidazol-2-yl)ethyl)benzenesulfonamide (Inactive at 3.50 μM)
20 | CCn1c([C@@H](C)NS(=O)(=O)c2ccc(CC(C)C)cc2)nc2ccc(C(F)(F)F)cc21 [Example 116, N-{(1R)-1-[1-Ethyl-6-(trifluoromethyl)-1H-benzimidazol-2-yl]ethyl}-4-isobutylbenzenesulfonamide] | 64.1% | –
21 | CCn1c([C@@H](C)NS(=O)(=O)c2cnn(C(C)C)c2C)nc2ccc(C(F)(F)F)cc21 [Example 118, N-{(1R)-1-[1-Ethyl-6-(trifluoromethyl)-1H-benzimidazol-2-yl]ethyl}-1-isopropyl-5-methyl-1H-pyrazole-4-sulfonamide] | 78% | –
22 | CCn1c(C(C)NS(=O)(=O)c2ccc(CN3CCOCC3)cc2)nc2ccc(C(F)(F)F)cc21 (stereo not drawn) [Example 130, N-(1-(1-ethyl-6-(trifluoromethyl)-1H-benzo[d]imidazol-2-yl)ethyl)-4-(morpholinomethyl)benzenesulfonamide] | 10.8% | –
23 | CCn1c([C@@H](C)NS(=O)(=O)c2ccc(F)cc2)nc2cnc(OC)cc21 [Example 132, (R)-N-(1-(1-Ethyl-6-methoxy-1H-imidazo[4,5-c]pyridin-2-yl)ethyl)-4-fluorobenzenesulfonamide] | 86.2% | –
24 | CCn1c(C(C)(C)NS(=O)(=O)c2ccc(Cl)cc2)nc2ccc(C(F)(F)F)cc21 [Example 136, 4-Chloro-N-{1-[1-ethyl-6-(trifluoromethyl)-1H-benzimidazol-2-yl]-1-methylethyl}benzenesulfon-amide] | 82.9% | –
25 | CCn1c(C(C)(C)NS(=O)(=O)c2ccc(F)cc2)nc2ccc(C(F)(F)F)cc21 [Example 137, N-[1-(1-Ethyl-6-trifluoromethyl-1H-benzoimidazol-2-yl)-1-methyl-ethyl]-4-fluoro-benzenesulfonamide] | 88.8% | –
26 | CCn1c(C(C)(C)NS(=O)(=O)c2ccc(C#N)cc2)nc2ccc(C(F)(F)F)cc21 [Example 138, 4-Cyano-N-[1-(1-ethyl-6-trifluoromethyl-1H-benzoimidazol-2-yl)-1-methyl-ethyl]-benzenesulfonamide] | 78.4% | –
27 | CCn1c(C(C)(C)NS(=O)(=O)c2ccccc2)nc2ccc(C(F)(F)F)cc21 [Example 139, N-{(1R)-1-[1-Ethyl-6-(trifluoromethyl)-1H-benzimidazol-2-yl]-1-methyl-ethyl}benzenesulfonamide] | 88.3% | –
28 | CCn1c(C(C)(C)NS(=O)(=O)c2ccc(C#N)nc2)nc2ccc(C(F)(F)F)cc21 [Example 140, 6-Cyano-N-(2-(1-ethyl-6-(trifluoromethyl)-1H-0 benzo[d]imidazol-2-yl)propan-2-yl)pyridine-3-sulfonamide] | 82.9% | –
29 | CCn1c(C(C)(C)NS(=O)(=O)c2ccc(C(N)=O)nc2)nc2ccc(C(F)(F)F)cc21 [Example 141, 5-(N-(2-(1-Ethyl-6-(trifluoromethyl)-1H-benzo[d]imidazol-2-yl)propan-2-yl)sulfamoyl)picolinamide] | 82.6% | –
30 | CCn1c(C2(NS(=O)(=O)c3ccc(Cl)cc3)CC2)nc2ccc(C(F)(F)F)cc21 [Example 142, 4-Chloro-N-{1-[1-ethyl-6-(trifluoromethyl)-1H-benzimidazol-2-yl]cyclopropyl}benzenesulfon amide] | 80.5% | –
31 | CCn1c(C2(NS(=O)(=O)c3ccc(F)cc3)CCC2)nc2ccc(C(F)(F)F)cc21 [Example 143, N-[1-(1-Ethyl-6-trifluoromethyl-1H-benzoimidazol-2-yl)-cyclobutyl]-4-fluoro-benzenesulfonamide] | 84.7% | –
32 | CCn1c([C@@H](C)NS(=O)(=O)c2ccc(Cl)cc2)nc2cnc(OC)cc21 [Example 144, (R)-4-Chloro-N-(1-(1-ethyl-6-methoxy-1H-imidazo[4,5-c]pyridin-2-yl)ethyl)benzenesulfonamide] | 90.7% | –
33 | CCn1c([C@@H](C)NS(=O)(=O)c2ccc(C#N)cc2)nc2cnc(C(F)(F)F)cc21 [Example 146, (R)-4-Cyano-N-(1-(1-ethyl-6-(trifluoromethyl)-1H-imidazo[4,5-c]pyridin-2-yl)ethyl)benzenesulfonamide] | 91.8% | –

Source: patent publication US20100029643A1 (ASTRAZENECA AB, priority 2006, published 2010)
